The source of these data is publication PMC12369479 (Journal of Experimental Botany, 2025).

Where two headings read alike, the source gives them in different places.

In test [1] the target is T1, ZmADK2 (Zea mays, UniProt B4FFH8, T4S). In words: ADK activity, coupled reaction with PK and LDH. The format is biochemical. The settings on record: pH 7.5. The protocol: (§1) Substrate analogs were purchased from Sigma-Aldrich (www.sigmaaldrich.com). The ADK activity was measured spectrophotometrically on an Agilent 8453 UV-Vis spectrophotometer (www.agilent.com) at 30 °C using a coupled reaction with pyruvate kinase (PK) and lactate dehydrogenase (LDH) (www.sigmaaldrich.com) ([Blondin et al., 1994]). In this assay, PK converts ADP produced by ADK and phosphoenolpyruvate (PEP) to pyruvate. Subsequently, LDH then converts pyruvate to lactate using the coenzyme NADH, with the conversion monitored at 340 nm. The reaction was conducted in 50 mM Tris–HCl buffer at pH 7.5, containing 50 mM KCl, 6 mM MgCl2, 300 µM PEP, 200 µM NADH, 10 mM ATP, 2 U of PK, and 2.5 U of LDH, using various nucleoside substrates. Kinetic constants were determined using GraphPad Prism 8.0 software (www.graphpad.com). Each measurement was performed six times using repetitive purified enzymes. The activities of all five ADKs were also measured by HPLC ([Moffatt et al., 1991]). The reaction mixture comprised 50 mM Tris–HCl pH 7.5, 5 mM MgCl2, 0.5 mM DTT, 30 mM NaF, 5 mM ATP, 40 µM substrate, and 2–150 ng of purified ADK, depending on the isoform. The reaction was incubated at 30 °C for up to 1 h. […] Similarly, the conversion of cytokinin ribosides to monophosphates was followed on a LiChrosphere 60 RP-Select B (5 µm) LiChroCART column 125-4 column equilibrated with 10 mM triethylamine at pH 5.4 plus 10% methanol, and stepwise eluted with 100% methanol.
T1 sequence (B4FFH8 1-342 T4S): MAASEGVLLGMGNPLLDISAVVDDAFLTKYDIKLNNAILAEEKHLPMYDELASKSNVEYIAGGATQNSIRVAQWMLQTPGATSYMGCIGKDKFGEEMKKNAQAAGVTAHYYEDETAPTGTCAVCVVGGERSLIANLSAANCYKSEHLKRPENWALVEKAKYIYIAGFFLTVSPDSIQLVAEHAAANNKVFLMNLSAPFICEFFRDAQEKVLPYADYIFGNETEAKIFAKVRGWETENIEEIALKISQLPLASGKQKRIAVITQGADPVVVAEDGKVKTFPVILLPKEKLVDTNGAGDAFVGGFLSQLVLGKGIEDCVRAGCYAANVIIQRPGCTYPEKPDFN

Test [2] deals with T2, PpADK1 (Physcomitrium patens, UniProt O49923).
T2 construct: made in house; host or cells: E. coli T7 Express Iq
T2 sequence (O49923 whole entry): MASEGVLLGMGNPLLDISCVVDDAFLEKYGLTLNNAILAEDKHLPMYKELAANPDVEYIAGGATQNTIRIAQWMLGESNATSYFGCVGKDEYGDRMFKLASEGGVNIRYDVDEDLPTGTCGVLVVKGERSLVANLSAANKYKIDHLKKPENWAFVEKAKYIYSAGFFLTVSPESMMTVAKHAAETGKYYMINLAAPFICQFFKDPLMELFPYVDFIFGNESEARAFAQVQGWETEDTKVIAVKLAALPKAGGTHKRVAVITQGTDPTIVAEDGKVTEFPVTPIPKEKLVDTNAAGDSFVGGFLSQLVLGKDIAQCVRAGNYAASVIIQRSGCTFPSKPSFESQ
The test can be described thus: Binding affinity by microscale thermophoresis (MST). More on the design: species or system Physcomitrella patens. The protocol: (§2) The microscale thermophoresis (MST) method was used to determine the binding affinity of various ribosides for ZmADK2 and PpADK1. Proteins were fluorescently labeled with RED-tris-NTA dye (www.nanotemper-technologies.com) using a 1:1 dye/protein molar ratio. The labeled protein was adjusted to 100–300 nM in 50 mM HEPES buffer pH 7.5, 1 mM MgCl2, and 0.2% Tween. Measurements were performed in premium capillaries on a Monolith NT.115 instrument at 30 °C with 5 s/30 s/5 s laser off/on/off times, respectively, with continuous sample fluorescence recording. Thermal stability was measured by nano-differential scanning fluorimetry on a Prometheus NT.48 instrument (www.nanotemper-technologies.com) in various buffers covering a pH (7.0–9.5) and temperature range (25–95 °C), with a heating rate of 1 °C min^–1, and using NT melting control software. Protein unfolding was measured by detecting the temperature-induced change in tryptophan fluorescence intensity at emission wavelengths of 330±5 nm and 350±5 nm. The melting temperature (Tm) was deduced from the maximum of the first derivative of the fluorescence ratios F350/F330.

Test [3] deals with ZmADK3 (Zea mays, UniProt A0A1D6E5Z5). In words: ADK activity, coupled reaction with PK and LDH. It is filed as biochemical. The settings on record: ZmADK3, 10 mM ATP, pH 7.5, 30 °C. The procedure: Substrate analogs were purchased from Sigma-Aldrich (www.sigmaaldrich.com). […] In this assay, PK converts ADP produced by ADK and phosphoenolpyruvate (PEP) to pyruvate. Subsequently, LDH then converts pyruvate to lactate using the coenzyme NADH, with the conversion monitored at 340 nm. The reaction was conducted in 50 mM Tris–HCl buffer at pH 7.5, containing 50 mM KCl, 6 mM MgCl2, 300 µM PEP, 200 µM NADH, 10 mM ATP, 2 U of PK, and 2.5 U of LDH, using various nucleoside substrates. Kinetic constants were determined using GraphPad Prism 8.0 software (www.graphpad.com). Each measurement was performed six times using repetitive purified enzymes. […] The reaction mixture comprised 50 mM Tris–HCl pH 7.5, 5 mM MgCl2, 0.5 mM DTT, 30 mM NaF, 5 mM ATP, 40 µM substrate, and 2–150 ng of purified ADK, depending on the isoform. The reaction was incubated at 30 °C for up to 1 h.
ZmADK3, sequence (A0A1D6E5Z5 entry or part of it): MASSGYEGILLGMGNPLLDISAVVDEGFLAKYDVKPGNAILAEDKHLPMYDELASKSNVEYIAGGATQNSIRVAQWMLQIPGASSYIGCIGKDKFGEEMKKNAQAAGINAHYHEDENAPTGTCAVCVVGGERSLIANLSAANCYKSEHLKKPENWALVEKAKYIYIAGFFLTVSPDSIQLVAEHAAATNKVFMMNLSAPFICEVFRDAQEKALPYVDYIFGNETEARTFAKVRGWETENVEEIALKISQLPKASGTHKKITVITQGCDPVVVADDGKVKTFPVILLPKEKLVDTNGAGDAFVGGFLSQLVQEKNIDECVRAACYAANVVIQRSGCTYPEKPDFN

Test [4] concerns the target T2, PpADK1. The test can be described thus: ADK activity, coupled reaction with PK and LDH. The format is biochemical, Physcomitrella patens. The conditions noted are these: 100 µM substrate, 10 mM ATP, pH 7.5, 30 °C. The protocol:
as §1

In test [5] the target is T1, ZmADK2. In words: Binding affinity by microscale thermophoresis (MST). The conditions noted are these: MST, 50 mM HEPES pH 7.5, 1 mM MgCl2, first or only binding event. The procedure: as §2
Test [6] deals with ZmADK1 (Zea mays, UniProt K7UH13). In words: ADK activity, coupled reaction with PK and LDH. The settings on record: 10 mM ATP, pH 7.5, 30 °C. The procedure: as §1
ZmADK1, sequence (K7UH13 entry or part of it): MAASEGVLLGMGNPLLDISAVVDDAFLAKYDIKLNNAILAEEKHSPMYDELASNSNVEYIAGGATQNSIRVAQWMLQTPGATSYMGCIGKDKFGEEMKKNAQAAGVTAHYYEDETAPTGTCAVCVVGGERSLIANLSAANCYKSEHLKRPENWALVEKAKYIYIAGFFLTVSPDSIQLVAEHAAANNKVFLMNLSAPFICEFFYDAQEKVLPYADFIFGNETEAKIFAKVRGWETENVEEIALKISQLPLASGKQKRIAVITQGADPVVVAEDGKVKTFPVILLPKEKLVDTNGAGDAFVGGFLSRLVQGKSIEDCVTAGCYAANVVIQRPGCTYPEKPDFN
Test [7] has as its target PpADK2 (Physcomitrium patens, UniProt A9RF27). In words: ADK activity, coupled reaction with PK and LDH. The settings on record: 10 mM ATP, pH 7.5, 30 °C. The procedure: as §1
Test [8] has as its system all five ADKs. In words: ADK kinetics, coupled reaction (summary for all isoforms). The format is biochemical, Zea mays, Physcomitrella patens. The settings on record: range over all five ADKs. The procedure:
Substrate analogs were purchased from Sigma-Aldrich (www.sigmaaldrich.com). The ADK activity was measured spectrophotometrically on an Agilent 8453 UV-Vis spectrophotometer (www.agilent.com) at 30 °C using a coupled reaction with pyruvate kinase (PK) and lactate dehydrogenase (LDH) (www.sigmaaldrich.com) ([Blondin et al., 1994]). In this assay, PK converts ADP produced by ADK and phosphoenolpyruvate (PEP) to pyruvate. Subsequently, LDH then converts pyruvate to lactate using the coenzyme NADH, with the conversion monitored at 340 nm. The reaction was conducted in 50 mM Tris–HCl buffer at pH 7.5, containing 50 mM KCl, 6 mM MgCl2, 300 µM PEP, 200 µM NADH, 10 mM ATP, 2 U of PK, and 2.5 U of LDH, using various nucleoside substrates. Kinetic constants were determined using GraphPad Prism 8.0 software (www.graphpad.com). Each measurement was performed six times using repetitive purified enzymes. The activities of all five ADKs were also measured by HPLC ([Moffatt et al., 1991]). The reaction mixture comprised 50 mM Tris–HCl pH 7.5, 5 mM MgCl2, 0.5 mM DTT, 30 mM NaF, 5 mM ATP, 40 µM substrate, and 2–150 ng of purified ADK, depending on the isoform. The reaction was incubated at 30 °C for up to 1 h. […]

Test [9] deals with rabbit ADK. More on the design: method as in Miller et al., 1979a. The settings on record: ref Miller et al., 1979a; cited from earlier work.
In test [10] the target is ZmADK3 D299A variant (Zea mays, UniProt A0A1D6E5Z5, D299A). The test can be described thus: Binding affinity by MST. The settings on record: D299A; MST; read-out: KD ATP. The procedure:
(§3) All ZmADK3 mutants were cloned by 30 cycle PCRs using tail-to-tail oriented phosphorylated primers, with the mutation being located at the 5′ end of one of the primers. The following mutants were cloned using the primers given in Supplementary Table S1: D19A, R132A, N222A, E225A, N295A, and D299A. The products were treated with DpnI restriction enzyme, gel purified, and ligated using T4 DNA ligase (www.thermofisher.com). Clones were transformed into T7 express I^qE. coli competent cells.
as §2

The target of test [11] is ZmADK3 N222A variant (Zea mays, UniProt A0A1D6E5Z5, N222A). The test can be described thus: Binding affinity by MST. The procedure: as §3, §2
ZmADK3 N222A variant, sequence (A0A1D6E5Z5 entry or part of it N222A): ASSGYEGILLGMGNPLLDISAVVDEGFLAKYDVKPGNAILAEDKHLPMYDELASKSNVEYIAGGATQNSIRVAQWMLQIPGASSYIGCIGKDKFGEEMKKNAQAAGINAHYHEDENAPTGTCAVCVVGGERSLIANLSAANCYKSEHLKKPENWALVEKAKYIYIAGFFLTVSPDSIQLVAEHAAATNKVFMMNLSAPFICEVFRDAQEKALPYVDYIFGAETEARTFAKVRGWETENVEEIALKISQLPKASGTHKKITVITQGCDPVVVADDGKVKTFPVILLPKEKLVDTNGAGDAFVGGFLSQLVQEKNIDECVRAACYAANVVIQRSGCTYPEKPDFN
The target in test [12] is ZmADK3 N295A variant (Zea mays, UniProt A0A1D6E5Z5, N295A). The test can be described thus: Binding affinity by MST. The settings on record: N295A; MST; read-out: KD ATP. The protocol:
as §3, §2

The target in test [13] is ZmADK3 D19A variant (Zea mays, UniProt A0A1D6E5Z5, D19A). The test can be described thus: Binding affinity by MST. The settings on record: D19A; MST; read-out: KD ATP. The protocol: as §3, §2
ZmADK3 D19A variant, sequence (A0A1D6E5Z5 entry or part of it D19A): as the sequence (A0A1D6E5Z5 entry or part of it N222A) above, with D18A, A221N counted along it
Test [14] addresses ZmADK3 E225A variant (Zea mays, UniProt A0A1D6E5Z5, E225A). The test can be described thus: Binding affinity by MST. The procedure: as §3, §2
Test [15] addresses ZmADK3 R132A variant (Zea mays, UniProt A0A1D6E5Z5, R132A). In words: Binding affinity by MST. The settings on record: R132A; MST; read-out: KD ATP. The procedure: as §3, §2
Test [16] deals with plant ADKs from lupin and Arabidopsis. More on the design: method as in Guranowski, 1979; Moffatt et al., 2000. The conditions noted are these: ref Guranowski, 1979, Moffatt et al., 2000, read-out: Km for ATP; cited from earlier work.
In test [17] the test system is five plant ADKs. The test can be described thus: Thermal stability by nanoDSF. More on the design: species or system Zea mays, Physcomitrella patens. The conditions noted are these: all isoforms, ATP complexes at 4 mM. The procedure:
as §2
Supplementary Fig. S1. Thermal stability, molecular and kinetic properties of ZmADK2. (A)
Thermal stability of five plant ADKs measured by nanoDSF. The curves for apoforms (in 150 mM
HEPES pH 7.2, 100 mM NaCl, 10 mM MgCl2) and ATP complexes at 4 mM concentrations are shown. […]

For test [18], the target named is WT ZmADK3 (Zea mays, UniProt A0A1D6E5Z5). In words: Binding affinity by MST. The conditions noted are these: read-out: KD ATP.
WT ZmADK3, sequence (A0A1D6E5Z5 2-344): as the sequence (A0A1D6E5Z5 entry or part of it N222A) above, with A221N counted along it

PpADK2, sequence (A9RF27 entry or part of it): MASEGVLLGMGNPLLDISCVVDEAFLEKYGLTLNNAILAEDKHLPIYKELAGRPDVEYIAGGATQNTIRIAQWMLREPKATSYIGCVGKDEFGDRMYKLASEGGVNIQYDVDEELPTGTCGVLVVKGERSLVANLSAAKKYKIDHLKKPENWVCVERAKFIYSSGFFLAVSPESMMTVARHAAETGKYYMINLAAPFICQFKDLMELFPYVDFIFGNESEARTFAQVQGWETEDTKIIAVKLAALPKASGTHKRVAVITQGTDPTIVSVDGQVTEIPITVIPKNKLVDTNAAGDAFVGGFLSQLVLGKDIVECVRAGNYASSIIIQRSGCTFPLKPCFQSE
ZmADK3 E225A variant, sequence (A0A1D6E5Z5 entry or part of it E225A): as the sequence (A0A1D6E5Z5 entry or part of it N222A) above, with A221N, E224A counted along it
ZmADK3 D299A variant, sequence (A0A1D6E5Z5 entry or part of it D299A): as the sequence (A0A1D6E5Z5 entry or part of it N222A) above, with A221N, D298A counted along it
ZmADK3 N295A variant, sequence (A0A1D6E5Z5 entry or part of it N295A): as the sequence (A0A1D6E5Z5 entry or part of it N222A) above, with A221N, N294A counted along it
ZmADK3 R132A variant, sequence (A0A1D6E5Z5 entry or part of it R132A): as the sequence (A0A1D6E5Z5 entry or part of it N222A) above, with R131A, A221N counted along it

Take `CC(C)=CCNc1ncnc2c1ncn2C1OC(CO)C(O)C1O` (stereo not drawn) [iPR, N ^6-isopentenyl adenosine]: the Specific activity in [1] is 4.1±0.4 nmol s^–1 mg^–1; in test [3] (100 µM substrate) it was 5.1±0.3 nmol s^–1 mg^–1; in test [4] it was 0.93±0.11 nmol s^–1 mg^–1; in test [6] (100 µM substrate), 2.8±0.3 nmol s^–1 mg^–1; in test [7] (100 µM substrate) it was 0.83±0.08 nmol s^–1 mg^–1. Besides, the kcat in test [1] came to 0.19±0.01 s^–1; in test [3], 0.22±0.007 s^–1; in [6], 0.10±0.002 s^–1; in [7], 0.03±0.001 s^–1. Besides, the Kd was 0.0055 mM in test [2] (KD, 50 mM HEPES pH 7.5, 1 mM MgCl2, first or only binding event) and 0.0048 ± 0.0011 mM in test [5] (KD). In addition, the Km in test [3] was 4.3 ± 0.4 µM; in test [6], 8.5 ± 0.7 µM; in test [7] it was 4 ± 0.3 µM; in [8], 4 to 12 µM; in test [9], 7 µM. The “activity compared with Ado” value in [9] is reported as 69%.
Turning to `Nc1ncnc2c1ncn2[C@@H]1O[C@H](COP(=O)(O)OP(=O)(O)OP(=O)(O)O)[C@@H](O)[C@H]1O` [ATP], the Kd was 9.1 ± 2.1 mM in [10]; 20.7 ± 4.4 mM in [11] (N222A, MST, read-out: KD ATP); 41.8 ± 10 mM in test [12]; 4.9 ± 1.5 mM in test [13]; 16 ± 4.5 mM in test [14] (E225A, MST, read-out: KD ATP); 8.5 ± 2.1 mM in test [15]. Besides, the Kd is 2.9 ± 0.7 mM in test [2] (50 mM HEPES pH 7.5, 1 mM MgCl2, read-out: KD); 2.9 ± 1.1 mM in test [18]; 2.2 ± 0.62 mM in [5] (read-out: KD). For the same molecule, the “lower affinity for ATP compared with the WT” value in test [11] (N222A variant of ZmADK3) is on record as 7 fold; in test [14] (E225A variant of ZmADK3), ~ 6 fold. In addition, the Km in test [16] was 300 to 400 µM. In addition, the “stabilizing effect on melting temperature (Tm)” value in test [17] is “up to 4 °C”.
